In patent US20030049600A1, “STEALTH VIRUS DETECTION IN THE CHRONIC FATIGUE SYNDROME” (priority 1991, published 2003):

System: fibroblasts
Experiment: Toxic effect on cultured fibroblasts, mimic of stealth virus culture toxicity
Assay type: cell-based
Conditions: 5 nM
From the text: A lack of regular refeeding of the cultures can result in a tendency for the CPE to abort and not to progress. This effect is not seen with CMV infected cultures. In unfed stealth virus cultures and even with regular refeeding, one can observe a toxic effect on many of the remaining cells. Culture cells appear to lose a degree of vitality and become duller in appearance compared to control cultures. The fibroblasts can assume somewhat of a pavement appearance, instead of the elongated shape.

In the case of `C=C1[C@@H](O)[C@@H]2O[C@]3(CC[C@H](/C=C/[C@@H](C)[C@@H]4CC(C)=C[C@@]5(O[C@H](C[C@@](C)(O)C(=O)O)CC[C@H]5O)O4)O3)CC[C@H]2O[C@@H]1[C@@H](O)C[C@H](C)[C@H]1O[C@@]2(CCCCO2)CC[C@H]1C` [okadaic acid], the “toxic effect on culture cells (loss of vitality, duller, pavement appearance)” value is reported as “Some of these changes can be mimicked”.
